Test results: US20150344978A1, “NICOTINE RESISTANT MICROORGANISMS” (priority 2014, published 2015)

Legend:
[1] = system: nicotine resistant yeast strain
Procedure: (§1) In the method, the X-PRESS yeast strain was subjected to a number of selection cycles to generate nicotine resistance. First, the X-PRESS yeast strain was cultured in liquid media (YP medium containing yeast extract (5 g/L); peptone (10 g/L)) to which 1% w/v (10 mg/ml) nicotine was added for 72 hr at 27° C. with shaking 200 rpm. […] After 72 hr, 100 μl of the culture was applied to a 1% w/v nicotine YP agar plate and allowed to grow on the plate at 27° C. for another 72 hr. In the next step, a single colony was inoculated into a 1.5% w/v nicotine YP medium solution and incubated for another 72 hr and the entire process was repeated. This process was repeated multiple times with the concentration of nicotine being increased in increments of 0.5% w/v at each cycle. […] In FIGS. 3A & 3B, the yeast strains were inoculated onto a nicotine-containing culture plate (nicotine 50 mg/ml, yeast extract 5 g/L, peptone 10 g/L and agar 15 g/L) and incubated at 27° C. for 3 days.
To ensure the stability of the nicotine resistance trait, an additional 20 generations of the resistant strain were cultured in the 7.5% w/v nicotine nutrient solution. […] This nicotine resistant Saccharomyces cerevisiae yeast strain was deposited on under the terms of the Budapest Treaty on the International Recognition of the Deposit of Microorganisms for the Purposes of Patent Procedure at the American Type Culture Collection (ATCC) in Manassas, Va., USA and bears the Patent Accession No. ______.

X-PRESS yeast strain = system: X-PRESS yeast strain
Procedure: as §1

With CN1CCCC1c1cccnc1 (centres unmarked) [nicotine] the “growth of nicotine resistant strain in medium” value [1] was “capable of growing”, the “growth of nicotine resistant yeast” value [1] was “still able to grow” and the “growth of nicotine resistant yeast on nicotine-containing culture plate” value [1] was “grew well”. The “effect on growth of X-PRESS yeast in liquid YP medium” value (X-PRESS yeast strain; 1% w/v (10 mg/ml) nicotine, 72 hr, 27° C., shaking 200 rpm) was “inhibited the growth rate, but did not kill the yeast”, the “growth of X-PRESS yeast on nicotine-containing culture plate” value (X-PRESS yeast strain; nicotine 50 mg/ml, yeast extract 5 g/L, peptone 10 g/L, agar 15 g/L, 27° C., 3 days) was “No yeast growth could be observed” and the “survival of X-PRESS yeast colonies” value (X-PRESS yeast strain; nicotine concentration of 7.5%) was “no surviving yeast colonies”. The “less ethanol production expected” value (yeast; in the presence of 0.5% nicotine) was 21% and the “less sugar consumption by yeast” value (yeast; nicotine 5 mg/ml added into fermentation solution (FIG. 1)) was 21%.
